Data as given in patent US8530446B2, “Oral composition containing difructose anhydride” (Fancl Corporation, priority 2004, dated 2013).

System: equol production in the intestinal tract
Experiment: Ability of DFA to increase equol production in the intestinal tract of rats (plasma equol by HPLC-UV)
Assay type: in vivo, Wistar-ST rats
Details: 20 days
Text: The ability of DFA to increase equol production in the intestinal tract was examined.
Twenty-seven male Wistar-ST rats (six weeks old) were raised with a solid feed for three days, after which they were divided into three groups by weight so that each group consisted of nine rats. Each group was given a base feed containing 0.25% of a food product containing 40% isoflavone (basal diet group), a feed consisting of the base feed whose sucrose was substituted by 3% with DFAIII (DFAIII group), or a feed consisting of the base feed whose sucrose was substituted by 3% with fructo-oligosaccharide (FOS group), and raised for twenty days. On day 20, blood was taken from each rat through the caudal vein and the equol level in blood plasma was measured using the HPLC-UV method.
In the table, a and b indicate that values denoted by different symbols have a significant difference between them.

Row | Structure (SMILES) | Effect of ingestion on equol level in blood plasma (in words) (rats, 3% in isoflavone-containing feed) | Equol (equol level in blood plasma) (male Wistar-ST rats, n=9/group, base feed with 0.25% of food product containing 40% isoflavone, sucrose substituted by 3% with test substance, caudal vein blood on day 20, HPLC-UV) [µmol]
1 | OC[C@H]1O[C@@]2(CO[C@]3(CO)O[C@H](CO)[C@@H](O)[C@@H]3O2)[C@@H](O)[C@@H]1O [DFA, difructose anhydride] | caused the equol level in blood plasma to rise | –
2 | OC[C@H]1O[C@@]2(CO[C@]3(CO)O[C@H](CO)[C@@H](O)[C@@H]3O2)[C@@H](O)[C@@H]1O [DFAIII, difructose anhydride] | – | 17.7 ± 1.81
